# Assay results as given in publication PMC3313936 (PLoS ONE, 2012).
# Read-outs that look alike come from different tables or passages of the source.
# Columns and labels:
# CBM32-5 [1] = target: T1, CBM32-5 (Clostridium perfringens, UniProt A0A0H2YU91); conditions: glycan immobilised on array; labelled protein
# T1 construct: gene CPF_0859
# CBM32-3 = target: T2, CBM32-3 (Clostridium perfringens, UniProt A0A0H2YU91); conditions: 50 mM HEPES pH 7.5, 25 °C; one-site fit, n fixed at 1
# T2 construct: gene CPF_0859
# CBM32-4 = target: T3, CBM32-4 (Clostridium perfringens, UniProt A0A0H2YU91); conditions: 50 mM HEPES pH 7.5, 25 °C; one-site fit, n fixed at 1
# T3 construct: gene CPF_0859
# CBM32-5 [2] = target: T1, CBM32-5; conditions: 20 mM Tris-HCl pH 8.0; 20 °C (table; methods say 25 °C); n fixed at 1
# CBM32-5 [3] = target: T1, CBM32-5; conditions: 20 mM Tris-HCl pH 8.0; 20 °C (table; methods say 25 °C)
# CBM32-5 [4] = target: T1, CBM32-5; conditions: co-crystallised with 10 mM ligand, pH 5.6
smiles,measurement,setting,value
"CC(=O)N[C@H]1[C@@H](O[C@@H]2[C@H](O)[C@@H](O[C@@H]3O[C@@H](C)[C@@H](O)[C@@H](O)[C@@H]3O)[C@H](O[C@H]3[C@H](O)[C@@H](NC(C)=O)C(O)O[C@@H]3CO)O[C@@H]2CO)O[C@H](CO)[C@H](O)[C@@H]1O (stereo partly drawn) [GalNAc-α-1,4(Fuc-α-1,2)-Gal-β-1,4-GlcNAc]",glycan microarray,CBM32-5 [1],this synthetic carbohydrate was clearly the top ligand from the array analysis
"CC(=O)N[C@H]1[C@@H](O[C@@H]2[C@H](O)[C@@H](O)C(O)O[C@@H]2CO)O[C@H](CO)[C@@H](O)[C@@H]1O (stereo partly drawn) [GlcNAc-α-1,4-Gal]",association constant,CBM32-3,2.64 (±0.64)×10^4
same,association constant,CBM32-4,1.38 (±0.08)×10^4
"CC(=O)N[C@H]1[C@H](O[C@H]2[C@@H](O)[C@@H](CO)OC(O)[C@@H]2O)O[C@H](CO)[C@H](O)[C@@H]1O (stereo partly drawn) [GalNAc-β-1,3-Gal]",Ka (M^-1),CBM32-5 [2],3.40 (±0.10)×10^3
"CC(=O)N[C@H]1C(O)O[C@H](CO)[C@H](O)[C@@H]1O[C@@H]1O[C@H](CO)[C@H](O)[C@H](O)[C@H]1O (stereo partly drawn) [Gal-β-1,3-GalNAc]",Ka (M^-1),CBM32-5 [3],3.77 (±0.34)×10^3
OC[C@H]1OC(O)[C@H](O)[C@@H](O)[C@H]1O (stereo partly drawn) [D-galactose],Ka (M^-1),CBM32-5 [3],1.69 (±0.05)×10^3
"CC(=O)N[C@H]1[C@@H](OC[C@H](N)C(=O)O)O[C@H](CO)[C@H](O)[C@@H]1O [Tn antigen, N-acetyl-α-D-galactosaminyl-1-O-serine]","X-ray crystal structure of complex, 1.70 Å",CBM32-5 [4],4a44 for CBM32-5 in complex with the Tn Antigen
OC[C@H]1O[C@@H](O[C@H]2[C@H](O)[C@@H](O)C(O)O[C@@H]2CO)[C@H](O)[C@@H](O)[C@H]1O (stereo partly drawn) [Lactose],Ka (M^-1),CBM32-5 [3],2.40 (±0.58)×10^3
CC(=O)N[C@H]1C(O)O[C@H](CO)[C@H](O)[C@@H]1O (stereo partly drawn) [D-GalNAc],Ka (M^-1),CBM32-5 [3],5.01 (±0.64)×10^3
